Laboratory results from publication PMC7442216 (Journal of medicinal chemistry, 2019).

Test system: HIV-1 NL4-3 NanoLuc-sec infection of MT4 cells
Experiment: MOA comparison: antiviral activity in the presence or absence of enzastaurin
Type: cell-based
Conditions: for HIV-1 inhibitory activity in the presence of enzastaurin: enzastaurin 1 μM, 1 at 0.6 nM, 13e at 2 nM

| SMILES | HIV-1 inhibitory activity in the presence of enzastaurin | antiviral potency relative to 1 (in this assay) | antagonism of GM's HIV-1 inhibitory activity (enzastaurin at 1 μM, GM at 0.6 nM) |
| --- | --- | --- | --- |
| C=C(C)[C@]12C[C@@H](COC(=O)c3ccccc3)[C@@]34OC5(O[C@@H]1[C@@H]3[C@@H]1O[C@]1(CO)[C@@H](O)[C@@]1(O)[C@H]4[C@H]([C@H](C)[C@@H]1OC(=O)c1ccccc1)[C@H](C)CCCCCC[C@H]5O)O2 [Compound 1, gnidimacrin] | largely abrogated |  |  |
| C=C(C)[C@]12C[C@@H](COC(=O)c3ccccc3)[C@@]34OC5(O[C@@H]1[C@@H]3[C@@H]1O[C@]1(CO)[C@@H](O)[C@@]1(O)[C@H]4[C@H]([C@H](C)[C@@H]1OC(=O)c1ccncc1)[C@H](C)CCCCCC[C@H]5O)O2 [Compound 13e, 3-O-(4-Pyridinylcarbonyl) Stelleramacrin] | able to abrogate | approximately threefold weaker |  |
| Cn1cc(C2=C(c3cn(C4CCN(Cc5ccccn5)CC4)c4ccccc34)C(=O)NC2=O)c2ccccc21 [enzastaurin, reference compound] |  |  | effectively antagonized |
